The values below come from patent US12564582B2 (Prilenia Neurotherapeutics Ltd., priority 2016, dated 2026).

Molecules are shown by their SMILES. Read-outs that look alike come from different tables or passages of the source.

The subject of assay [1] is patients with Huntington's disease. Particulars: 45 mg b.i.d, pooled MermaiHD, HART and Pride-HD, BL dystonia ≥4.
Another assay concerns rat striatum. Particulars: transcriptomic analysis (Geva 2016); cited from earlier work.

As to `CCCN1CCC(c2cccc(S(C)(=O)=O)c2)CC1` [pridopidine, 4-[3-(methylsulfonyl)phenyl]-1-propyl-piperidine], the “UHDRS Dystonia score compared to placebo” value in assay [1] (Week 26) was “statistically significant improvement”; in assay [1] (Week 52) it was “trend toward this improvement was maintained”. Further, the “expression of the BDNF, dopamine receptor 1 (D1R), glucocorticoid receptor (GR) and Akt/PI3K pathways” value with rat striatum was “activates expression”.
